According to patent publication EP0854192A2, “Production of human cathepsin and its use” (Takeda Chemical Industries, Ltd., priority 1992, dated 1994):
Where a SMILES comes first, the peptide text is derived from it. [ ]: non-standard residue; d: D form. The star is where a group is joined. Sta = CC(C)C[C@H](N)[C@@H](O)CC(=O)O; Isovaleryl = CC(C)CC(=O)*; Cbz = O=C(OCc1ccccc1)*; CHN2 = [N-]=[N+]=C*

Molecular target: human cathepsin L (recombinant, of human renal origin cDNA, expressed in COS-7 cells, concentrated culture supernatant) (Homo sapiens, UniProt P07711)
Experiment: Cathepsin L enzyme activity assay with synthetic substrate Z-Phe-Arg-NMec in the presence of enzyme inhibitors (method of Barrett and Kirschke)
Assay type: biochemical
Details: 30°C, 10 minutes; for remaining activity at 1 µM: 1 µM inhibitor added after enzyme activation
Method: The culture supernatant of COS-7 transformant prepared in Example 2 was concentrated about 20-fold with Centricut (produced by Kurabo Industries, Ltd., cut-off molecular weight = 10000) and assayed for cathepsin L enzyme activity, according to the method of A. J. Barrett and H. Kirschke [Methods in Enzymology 80, 535 (1981)]. To 25 µl of this concentrated culture supernatant were added 25 µl of 1 M sodium formate buffer (pH 3.0) and 10 µl of 0.1 M DTT, and water was added for a final volume of 250 µl, followed by incubation at 37°C for 30 seconds. After 125 µl of activating buffer (340 mM sodium acetate, 60 mM acetic acid, 4 mM EDTA disodium, pH 5.5) was added, the mixture was kept standing at 30°C for 1 minute for activation. The enzyme reaction was carried out at 30°C for 10 minutes in the presence of 125 µl of a synthetic substrate solution [20 µM Z-Phe-Arg-NMec (Z: benzyloxycarbonyl-, NMec: -7-(4-methyl)coumarylamide)], and stopped by the addition of 500 µl of a reaction stopper (100 mM sodium monochloroacetate, 30 mM sodium acetate, 70 mM acetic acid, pH 4.3). For a control experiment, a culture supernatant of COS-7 cells not expressing cathepsin L was used as an enzyme solution. After termination of the reaction, 100 µl of the reaction mixture was injected into a 96-well fluoroplate (produced by Labo Systems), and the fluorescence intensity of free 7-amino-4-methylcoumarin was determined at a wavelength of 450 nm (excitation wavelength = 365 nm) using a fluorometer FCA (produced by Baxter). In assessing the effects of the following enzyme inhibitors on the present enzyme activity, the inhibitor was added after the above enzyme activating operation. The enzyme inhibitors used were 10 µM leupeptin (cysteine protease inhibitor), 10 µM (p-amidinophenyl)methanesulfonyl fluoride hydrochloride (APMSF: serine protease inhibitor), 1 µM Z-Phe-Phe-CHN2 (cathepsin L inhibitor, -CHN2: -diazomethane) and 1 µM pepstatin A (aspartic acid protease inhibitor).

[1] = read-out: enzyme activity in the presence of enzyme inhibitor, in comparison with the inhibitor-free control

Chain of human cathepsin L (recombinant, of human renal origin cDNA, expressed in COS-7 cells, concentrated culture supernatant) (P07711 114-333): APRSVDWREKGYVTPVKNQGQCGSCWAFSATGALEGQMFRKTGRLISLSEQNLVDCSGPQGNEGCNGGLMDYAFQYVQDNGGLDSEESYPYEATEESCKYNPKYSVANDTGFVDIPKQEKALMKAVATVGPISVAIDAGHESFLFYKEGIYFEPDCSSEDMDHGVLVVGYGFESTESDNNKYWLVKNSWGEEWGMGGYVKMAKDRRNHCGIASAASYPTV

remaining activity at 1 µM [1] | SMILES | other results
6.3% | [N-]=[N+]=CC(=O)[C@H](Cc1ccccc1)NC(=O)[C@H](Cc1ccccc1)NC(=O)OCc1ccccc1 [Z-Phe-Phe-CHN2] (Cbz-Phe-Phe-CHN2) | –
99% | CC(C)CC(=O)N[C@H](C(=O)N[C@H](C(=O)N[C@@H](CC(C)C)[C@@H](O)CC(=O)N[C@@H](C)C(=O)N[C@@H](CC(C)C)[C@@H](O)CC(=O)O)C(C)C)C(C)C [pepstatin A] (Isovaleryl-VV[Sta]A[Sta]-OH) | –
– | CC(=O)N[C@@H](CC(C)C)C(=O)N[C@@H](CC(C)C)C(=O)N[C@H](C=O)CCCNC(=N)N [leupeptin] | remaining activity at 10 µM (10 µM inhibitor added after enzyme activation, read-out: enzyme activity in the presence of enzyme inhibitor, in comparison with the inhibitor-free control): 3.4%
– | Cl.N=C(N)c1ccc(CS(=O)(=O)F)cc1 [APMSF, (p-amidinophenyl)methanesulfonyl fluoride hydrochloride] | enzyme activity in the presence of enzyme inhibitor, in comparison with the inhibitor-free control (10 µM inhibitor added after enzyme activation, remaining activity): 79%
